In patent US7101878B1 (Agouron Pharmaceuticals, Inc., priority 1998, dated 2006):

Biological target: T1, mouse GnRH receptor (Mus musculus, UniProt Q01776)
T1 construct: expressed in transfected cells; host or cells: 293 cells
T1 sequence (Q01776 1-327): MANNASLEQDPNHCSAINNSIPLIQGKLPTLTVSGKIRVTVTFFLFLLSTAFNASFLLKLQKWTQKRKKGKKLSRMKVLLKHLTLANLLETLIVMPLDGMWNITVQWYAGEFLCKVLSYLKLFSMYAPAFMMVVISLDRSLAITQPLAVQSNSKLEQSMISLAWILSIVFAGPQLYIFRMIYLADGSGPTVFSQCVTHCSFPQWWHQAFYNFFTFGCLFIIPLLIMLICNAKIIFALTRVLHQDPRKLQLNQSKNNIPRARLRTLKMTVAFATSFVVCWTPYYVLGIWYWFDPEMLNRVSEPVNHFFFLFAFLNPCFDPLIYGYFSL
Assay: Radioligand binding, 125I-GnRH-A, 293 cells expressing mouse GnRH receptors
Conditions: for remaining activity at 10 µM: 1 h, substrate remaining, 10 uM compound, closer to zero = closer to 100% inhibition, read-out: S%R 10 uM mGnRHR; for inhibition at 10 µM: read-out: % Inhib. @ 10 uM mGnRH
Protocol: All compounds were diluted in 1% DMSO (final assay concentration) in binding assay buffer. […] Reactions were terminated by rapid filtration onto 96-well Packard GF/C filters soaked in 0.1% polyethyleneimine. Filters were washed three times with PBS buffer, dried and counted on a Packard Topcount by liquid scintillation counting.
Assay conditions were identical for assessing compound activities at other species. […] IC50 values for control peptides and test compounds were calculated utilizing GraphPad Prism™ software.
The reaction mixture was vortexed and incubated for 1 min at room temperature. After one min, the mixture was vortexed and allowed to incubate for an additional minute. 2 ml of 0.5 M acetic acid/1% BSA was added to the reaction tube and the mixture was added to a C18 Sep-Pak cartridge. The cartridge was washed with subsequent washes of 5 ml H2O and 5 ml 0.5M acetic acid and then eluted with 5×1 ml of 60% CH3CN/40% 0.5M acetic acid. The eluate was diluted with 3× volume of HPLC buffer A (0.1% TFA in H2O) and loaded onto a C18 column. […] The radioactive fractions (750 ed/fraction) are collected into clean polypropylene tubes containing 100 μl of 10% BSA. Fractions were assessed for biological activity by radioligand binding.

Compound | remaining activity at 10 µM [%] | inhibition at 10 µM [%]
Cc1cc2c(cc1Cc1ccc(C(=O)NC(C)CCCC(C)C)o1)C(C)(C)CCC2(C)C (stereo not drawn) [Compound 587] | 29 | –
Cc1cc2c(cc1Cc1ccc(C(=O)NCCc3cccnc3)o1)C(C)(C)CCC2(C)C [Compound 457] | -3 | –
Cc1cc2c(cc1Cc1ccc(C(=O)N(C)CCCN(C)C)o1)C(C)(C)CCC2(C)C [Compound 608] | 8 | –
Cc1cc2c(cc1Cc1ccc(C(=O)NCCc3ccc(OCc4ccccc4)c(OCc4ccccc4)c3)o1)C(C)(C)CCC2(C)C | – | 20
COc1ccc(CCNC(=O)c2ccc(Cc3cc4c(cc3C)C(C)(C)CCC4(C)C)o2)cc1OC [Compound 489] | -1 | –
COCCCNC(=O)c1ccc(Cc2cc3c(cc2C)C(C)(C)CCC3(C)C)o1 [drawing 1268] | – | 101
CCOC(=O)C1CN(C(=O)c2ccc(Cc3cc4c(cc3C)C(C)(C)CCC4(C)C)o2)CCC1=O (stereo not drawn) | – | 71
C=CCN(CC=C)C(=O)c1ccc(Cc2cc3c(cc2C)C(C)(C)CCC3(C)C)o1 [drawing 1440] | – | 83
Cc1cc2c(cc1Cc1ccc(C(=O)N(C)C3CCCCC3)o1)C(C)(C)CCC2(C)C | – | 97
Cc1cc2c(cc1Cc1ccc(C(=O)NCC(F)(F)F)o1)C(C)(C)CCC2(C)C [drawing 1271] | – | 26
Cc1cc2c(cc1Cc1ccc(C(=O)N(CCC#N)CCC#N)o1)C(C)(C)CCC2(C)C [Compound 672] | 23 | –
Cc1cc2c(cc1Cc1ccc(C(=O)NCC3CCN(c4nccc(NCC5CCCO5)n4)CC3)o1)C(C)(C)CCC2(C)C (stereo not drawn) [Compound 491] | 9 | –
Cc1cc2c(cc1Cc1ccc(C(=O)N3CCc4ccccc4C3Cc3ccccc3)o1)C(C)(C)CCC2(C)C (stereo not drawn) [drawing 1515] | – | 46
CCN1CC(N(Cc2ccccc2C#N)C(=O)c2ccc(Cc3cc4c(cc3C)C(C)(C)CCC4(C)C)o2)CN1CC [drawing 1565] | – | 101
Cc1cc2c(cc1Cc1ccc(C(=O)N3CCC(Cc4ccccc4)CC3)o1)C(C)(C)CCC2(C)C [drawing 1425] | – | 48
CC[C@H](C)C(CO)NC(=O)c1ccc(Cc2cc3c(cc2C)C(C)(C)CCC3(C)C)o1 (stereo partly drawn) [drawing 1581] | – | 77
Cc1cc2c(cc1Cc1ccc(C(=O)NC[C@@H]3CCCC[C@H]3O)o1)C(C)(C)CCC2(C)C [Compound 566] | 3 | –
CCN(CCO)C(=O)c1ccc(Cc2cc3c(cc2C)C(C)(C)CCC3(C)C)o1 [drawing 1451] | – | 81
Cc1cc2c(cc1Cc1ccc(C(=O)N3CCC(C)CC3)o1)C(C)(C)CCC2(C)C [Compound 605] | 19 | –
Cc1cc2c(cc1Cc1ccc(C(=O)N(CCC#N)CC3CCCO3)o1)C(C)(C)CCC2(C)C (stereo not drawn) | – | 95
COCC(C)NC(=O)c1ccc(Cc2cc3c(cc2C)C(C)(C)CCC3(C)C)o1 (stereo not drawn) [Compound 557] | 10 | –

Compound | remaining activity at 10 µM [%] | inhibition at 10 µM [%]
Cc1cc2c(cc1Cc1ccc(C(=O)NC(CO)CC3CCCCC3)o1)C(C)(C)CCC2(C)C (stereo not drawn) [drawing 1465] | – | 76
Cc1cc2c(cc1Cc1ccc(C(=O)NC(C)CO)o1)C(C)(C)CCC2(C)C (stereo not drawn) [drawing 1241] | – | 82
Cc1cc2c(cc1Cc1ccc(C(=O)NCCc3ccccc3)o1)C(C)(C)CCC2(C)C [drawing 1452] | – | 73
Cc1cc2c(cc1Cc1ccc(C(=O)N(CCN3CCCCC3)Cc3ccccc3)o1)C(C)(C)CCC2(C)C [Compound 603] | -4 | –
Cc1cc2c(cc1Cc1ccc(C(=O)N(CC(C)C)CC(C)C)o1)C(C)(C)CCC2(C)C [drawing 1501] | – | 85
Cc1cc2c(cc1Cc1ccc(C(=O)NCCCCCCN(C)C)o1)C(C)(C)CCC2(C)C [drawing 1519] | – | 106
Cc1cc2c(cc1Cc1ccc(C(=O)N(CCC(c3ccccc3)c3ccccc3)CC3CCCCC3)o1)C(C)(C)CCC2(C)C | – | 31
Cc1cc2c(cc1Cc1ccc(C(=O)N3CCC(C(=O)c4ccc(F)cc4)CC3)o1)C(C)(C)CCC2(C)C [Compound 573] | 37 | –
CCN(CC)CCCN(C)C(=O)c1ccc(Cc2cc3c(cc2C)C(C)(C)CCC3(C)C)o1 | – | 92
Cc1cc2c(cc1Cc1ccc(C(=O)Nc3ccc4[nH]c(-c5ccccn5)nc4c3)o1)C(C)(C)CCC2(C)C [Compound 477] | 47 | –
CCSCCNC(=O)c1ccc(Cc2cc3c(cc2C)C(C)(C)CCC3(C)C)o1 [drawing 1588] | – | 99
Cc1cc2c(cc1Cc1ccc(C(=O)NCCc3c[nH]c4ccc(Cl)cc34)o1)C(C)(C)CCC2(C)C [Compound 509] | 16 | –
Cc1cc2c(cc1Cc1ccc(C(=O)N3CCCC(C)C3)o1)C(C)(C)CCC2(C)C (stereo not drawn) | – | 97
Cc1cc2c(cc1Cc1ccc(C(=O)NCc3ccc(F)c(F)c3)o1)C(C)(C)CCC2(C)C [Compound 519] | 0 | –
CCC(CO)NC(=O)c1ccc(Cc2cc3c(cc2C)C(C)(C)CCC3(C)C)o1 (stereo not drawn) [Compound 597] | 11 | –
Cc1cc2c(cc1Cc1ccc(C(=O)NCC(C)O)o1)C(C)(C)CCC2(C)C (stereo not drawn) [Compound 556] | 10 | –
Cc1cc2c(cc1Cc1ccc(C(=O)NC(C)c3ccccc3)o1)C(C)(C)CCC2(C)C (stereo not drawn) [Compound 616] | 29 | –
CCN(CC)CCCC(C)N(Cc1ccc(F)cc1)C(=O)c1ccc(Cc2cc3c(cc2C)C(C)(C)CCC3(C)C)o1 (stereo not drawn) | – | 102
Cc1cc2c(cc1Cc1ccc(C(=O)N(Cc3cccn3C)C3CCN(Cc4ccccc4)C3)o1)C(C)(C)CCC2(C)C (stereo not drawn) [drawing 1562] | – | 98
Cc1cc2c(cc1Cc1ccc(C(=O)NCC3CCC(C(=O)O)CC3)o1)C(C)(C)CCC2(C)C (stereo not drawn) [Compound 479] | -3 | –
COC(CCCNC(=O)c1ccc(Cc2cc3c(cc2C)C(C)(C)CCC3(C)C)o1)OC [drawing 1383] | – | 101

Compound | remaining activity at 10 µM [%] | inhibition at 10 µM [%]
Cc1cc2c(cc1Cc1ccc(C(=O)NCCCN3CCCCC3C)o1)C(C)(C)CCC2(C)C (stereo not drawn) [Compound 494] | -7 | –
C=CCN1CCN(C(=O)c2ccc(Cc3cc4c(cc3C)C(C)(C)CCC4(C)C)o2)CC1 | – | 95
Cc1cc2c(cc1Cc1ccc(C(=O)N(CCN(C)C)Cc3ccccc3)o1)C(C)(C)CCC2(C)C [drawing 1255] | – | 104
Cc1cc2c(cc1Cc1ccc(C(=O)N3CCN(CCc4ccccc4)CC3)o1)C(C)(C)CCC2(C)C | – | 97
COc1ccccc1N1CCN(C(=O)c2ccc(Cc3cc4c(cc3C)C(C)(C)CCC4(C)C)o2)CC1 [Compound 554] | 27 | –
Cc1cc2c(cc1Cc1ccc(C(=O)N(CCC#N)Cc3ccco3)o1)C(C)(C)CCC2(C)C [Compound 705] | 23 | –
CCOC(=O)CN(Cc1ccccc1)C(=O)c1ccc(Cc2cc3c(cc2C)C(C)(C)CCC3(C)C)o1 [drawing 1494] | – | 62
Cc1cc2c(cc1Cc1ccc(C(=O)NCCCCCCO)o1)C(C)(C)CCC2(C)C [Compound 617] | -2 | –
CC(=O)N(C)C1CCN(C(=O)c2ccc(Cc3cc4c(cc3C)C(C)(C)CCC4(C)C)o2)C1 (stereo not drawn) [Compound 544] | 27 | –
Cc1cc2c(cc1Cc1ccc(C(=O)NC(C)C3CCCCC3)o1)C(C)(C)CCC2(C)C (stereo not drawn) [Compound 546] | 29 | –
Cc1cc2c(cc1Cc1ccc(C(=O)NC(C)c3cccc4ccccc34)o1)C(C)(C)CCC2(C)C (stereo not drawn) | – | 28
CCOC(=O)C1CCCCN1C(=O)c1ccc(Cc2cc3c(cc2C)C(C)(C)CCC3(C)C)o1 (stereo not drawn) | – | 94
Cc1cccc(N2CCN(C(=O)c3ccc(Cc4cc5c(cc4C)C(C)(C)CCC5(C)C)o3)CC2C)c1 (stereo not drawn) [drawing 1520] | – | 73
CCCCN(CCCC)CCCNC(=O)c1ccc(Cc2cc3c(cc2C)C(C)(C)CCC3(C)C)o1 [drawing 1242] | – | 103
Cc1cc2c(cc1Cc1ccc(C(=O)N3CC(C)OC(C)C3)o1)C(C)(C)CCC2(C)C (stereo not drawn) [Compound 592] | 17 | –
Cc1cc2c(cc1Cc1ccc(C(=O)N(CCC(c3ccccc3)c3ccccc3)Cc3ccccn3)o1)C(C)(C)CCC2(C)C [drawing 1554] | – | 50
COc1cc(OC)cc(N2CCN(C(=O)c3ccc(Cc4cc5c(cc4C)C(C)(C)CCC5(C)C)o3)CC2)c1 [drawing 1576] | – | 65
Cc1cc2c(cc1Cc1ccc(C(=O)NC3CCC3)o1)C(C)(C)CCC2(C)C [drawing 1456] | – | 60
Cc1cc2c(cc1Cc1ccc(C(=O)N(C)CCC#N)o1)C(C)(C)CCC2(C)C [Compound 636] | 17 | –
Cc1cc2c(cc1Cc1ccc(C(=O)NCCc3ccccc3)o1)C(C)(C)CCC2(C)C [Compound 545] | 28 | –
Cc1cc2c(cc1Cc1ccc(C(=O)N(CCC3CCCN3C)Cc3ccc4ccccc4c3)o1)C(C)(C)CCC2(C)C (stereo not drawn) [drawing 1492] | – | 105
